Experimental data published in patent US10016439B2, “Fused imidazole compounds” (ONO PHARMACEUTICAL CO., LTD., priority 2014, dated 2018).

What was measured:
Lister Hooded rat = experiment: Rat Novel Object Recognition test; format: in vivo; details: 20 mg/kg p.o., 30 min prior to T1 and T2; 24 hr delay
Source text: NOR (Novel Object Recognition test) is a two-trial spontaneous test of visual recognition memory that relies on the animal's natural tendency to explore novelty (Behav Brain Res, 1998, 31(1): pp. 47-59). Variation of the inter-trial interval (ITI) between acquisition (T1) and retention trials (T2) may be used to investigate either deficits or improvements in memory. A temporal performance deficit can be induced by increasing the ITI (approximately 24 hr), such that exploration of both objects in T2 is similar, enabling the pro-cognitive abilities of novel compounds to be evaluated.
Male, Lister Hooded rat (228-273 g at start of study; Harlan UK) was used.
Habituation to the grey, matt perspex NOR box twice a day, on two consecutive days, prior to testing. Each habituation session, consisted of a 3 min exposure to the empty test box (46×30×45 cm), followed by 1 min in the side annex (13×30×45 cm), and then a further 3 min in the test area. […]
Experimental protocol tests for improvement in attention/recognition memory via reversal of a 24 h delay-induced deficit in NOR. […] All performance measures were determined for each individual animal before statistical handling.
The T1 score, d1 and d2 index were analysed using 2-way ANOVA (treatment×object) followed by planned comparisons post-hoc LSD using single measure parametric analysis, based on least square (predicted) means in InVivoStat, UK.

GABAA α1/β3/γ2 = GABAA α1/β3/γ2 (Homo sapiens (Human), UniProt P14867+P18507); experiment: Functional assay (PatchXpress automated patch-clamp), α1 subtype; format: cell-based; details: % change of GABA EC20 response; compound 1 μM; HEK293 cells
GABAA α1/β3/γ2, sequence (P14867 28-456): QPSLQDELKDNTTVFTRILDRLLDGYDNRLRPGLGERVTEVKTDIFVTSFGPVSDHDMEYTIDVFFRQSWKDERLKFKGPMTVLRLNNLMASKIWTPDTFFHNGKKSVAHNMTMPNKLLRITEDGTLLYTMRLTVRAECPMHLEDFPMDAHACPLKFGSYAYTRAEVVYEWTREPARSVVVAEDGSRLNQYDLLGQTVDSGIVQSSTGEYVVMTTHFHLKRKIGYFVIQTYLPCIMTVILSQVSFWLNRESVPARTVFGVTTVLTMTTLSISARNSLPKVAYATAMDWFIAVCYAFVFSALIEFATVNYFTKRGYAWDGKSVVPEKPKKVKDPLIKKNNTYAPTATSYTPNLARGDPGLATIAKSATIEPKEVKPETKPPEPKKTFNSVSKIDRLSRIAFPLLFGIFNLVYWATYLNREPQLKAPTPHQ
GABAA α1/β3/γ2, sequence (P28472 26-473 partner): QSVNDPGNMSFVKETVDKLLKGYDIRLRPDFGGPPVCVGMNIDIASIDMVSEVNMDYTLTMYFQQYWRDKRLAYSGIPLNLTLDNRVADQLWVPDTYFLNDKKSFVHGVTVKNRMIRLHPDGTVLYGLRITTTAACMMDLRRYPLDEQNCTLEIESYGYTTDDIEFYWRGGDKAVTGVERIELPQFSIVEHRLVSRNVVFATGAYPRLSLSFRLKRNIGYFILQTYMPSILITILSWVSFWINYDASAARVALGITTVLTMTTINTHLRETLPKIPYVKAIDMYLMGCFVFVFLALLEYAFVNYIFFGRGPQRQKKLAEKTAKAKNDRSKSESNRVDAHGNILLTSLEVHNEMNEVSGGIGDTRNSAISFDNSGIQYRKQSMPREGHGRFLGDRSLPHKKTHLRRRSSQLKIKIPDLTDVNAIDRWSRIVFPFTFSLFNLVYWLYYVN
GABAA α1/β3/γ2, sequence (P18507 40-475): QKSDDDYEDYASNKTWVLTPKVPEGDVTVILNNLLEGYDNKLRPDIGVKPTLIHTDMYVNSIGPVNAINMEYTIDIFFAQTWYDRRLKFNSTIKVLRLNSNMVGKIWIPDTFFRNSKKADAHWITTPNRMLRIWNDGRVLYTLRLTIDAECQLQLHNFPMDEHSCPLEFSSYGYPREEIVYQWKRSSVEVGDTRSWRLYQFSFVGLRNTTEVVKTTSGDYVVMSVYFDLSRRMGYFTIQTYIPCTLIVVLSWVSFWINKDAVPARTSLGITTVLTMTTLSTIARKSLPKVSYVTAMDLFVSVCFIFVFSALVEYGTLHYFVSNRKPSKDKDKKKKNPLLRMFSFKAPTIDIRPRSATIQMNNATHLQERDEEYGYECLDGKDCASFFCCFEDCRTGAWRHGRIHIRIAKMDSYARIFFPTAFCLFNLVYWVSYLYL
Source text: (§1) GABAA α5/β3/γ2 HEK293 cell line was used throughout the functional assay in PatchXpress (Molecular Devices), the automated patch-clamp system. Cells stably expressing the appropriate GABAA subtype (α5/β3/γ2, α1/β3/γ2, α2/β3/γ2 or α3/β3/γ2) were dissociated from poly-D-lysine treated tissue culture flasks using a mixture of one part TrypLE (Invitrogen, cat #12604): one part Dulbecco's Phosphate Buffered Saline (Invitrogen, cat #14190). The dissociated cells were re-suspended in growth media (D-MEM/F-12 media (Invitrogen, cat #11320) supplemented with 10% (v/v) Foetal Bovine Serum (Invitrogen, cat #10082) and 1% (v/v) non-essential amino acids (Invitrogen, cat #11140)) and allowed to recover for one hour at 37° C. in a humidified incubator with 5% CO2. At the end of the recovery period cells were centrifuged at 1,000 rpm for two minutes and the resulting pellet re-suspended in external solution (in mM; 137 NaCl, 4 KCl, 10 HEPES, 1.8 CaCl2, 1 MgCl2, 10 glucose, pH set to 7.35 with NaOH). Cells were counted and diluted to 2.5×10^6/ml in external solution. The patch-clamp assay protocol involved determination of current amplitude with control applications of GABA EC20 containing concentration-matched DMSO (0.3% v/v), then pre-incubation of the test compound for one minute prior to the addition of the same compound diluted with the GABA EC20. Compound and/or GABA was applied for five seconds, with two minute wash periods between applications. No wash period was present at the end of the compound pre-application stage. The internal solution comprised (in mM) 90 KCl, 50 KF, 11 EGTA, 10 HEPES, 1 MgCl2, 2 Mg-ATP, the pH was set to 7.35 with KOH and the holding potential was −60 mV. Compounds were assayed at a concentration of 1 μM.

GABAA α5/β3/γ2 [1] = target: T1, GABAA α5/β3/γ2 (Homo sapiens (Human), UniProt P18507+P31644); experiment: Binding assay (Scintillation Proximity Assay, [3H]-Ro15-1788); details: membranes of HEK293 cells expressing GABAA α5/β3/γ2
T1 sequence (P31644 32-462): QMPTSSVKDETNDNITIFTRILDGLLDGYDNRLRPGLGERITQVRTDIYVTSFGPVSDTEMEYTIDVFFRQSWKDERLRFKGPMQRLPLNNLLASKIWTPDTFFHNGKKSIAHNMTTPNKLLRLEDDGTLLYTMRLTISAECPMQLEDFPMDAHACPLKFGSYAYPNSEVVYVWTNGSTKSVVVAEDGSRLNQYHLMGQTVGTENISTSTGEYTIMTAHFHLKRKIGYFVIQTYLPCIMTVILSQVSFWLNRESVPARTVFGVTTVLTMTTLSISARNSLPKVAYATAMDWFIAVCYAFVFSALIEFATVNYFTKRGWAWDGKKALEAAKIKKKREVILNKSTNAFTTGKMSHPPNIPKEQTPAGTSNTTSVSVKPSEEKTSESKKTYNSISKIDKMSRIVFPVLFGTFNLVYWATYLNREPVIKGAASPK
T1 sequence (P28472 26-473 partner): as the sequence (P28472 26-473 partner) above
T1 sequence (P18507 40-475): as the sequence (P18507 40-475) above
Description: The GABAAα5/β3/γ2 protein used for the Scintillation Proximity Assay was derived from membranes produced from HEK293 GABAA α5/β3/γ2 expressing HEK293 cell line. HEK293 GABAA α5/β3/γ2 expressing HEK293 cell line was cultured, then harvested and centrifuged the cells. Membranes were produced by homogenization of the cell pellet with a tissue homogenizer. The resulting homogenate was centrifuged at 48,000 g for 30 minutes, re-suspended and washed twice with 10 mM potassium phosphate buffer, pH 7.4. Final resuspension of membranes took place in buffer containing 10 mM potassium phosphate and 100 mM KCl.
For assay, test compound (50×) was added 0.5 μl per well to a white-walled clear-bottomed 384-well plate.
Full signal controls were prepared by the addition of 0.5 μl of DMSO to the appropriate wells. Mixture of 10 μl of protein and 10 μl of PVT-WGA beads (0.2 mg/well) were added to the plate. Both protein and bead were diluted to the desired concentration with 10 mM potassium phosphate, pH 7.4, containing 100 mM KCl. The plate was pre-incubated for 30 minutes at room temperature with shaking before initiation of the reaction by the addition of radioligand. 5 μl of [^3H]-Ro15-1788 was added at a concentration of 30 nM (5×) and the plates sealed. The reaction mix was incubated at room temperature overnight with gentle agitation on a plate shaker. The final DMSO concentration for all phases of the screening was 2% (v/v). At the end of the overnight incubation, the plates were centrifuged for two minutes at 1,000 rpm prior to reading on a Perkin Elmer Microbeta.
Concentration-response testing was performed in duplicate and the percent effect calculated for each replicate data point. The raw data was entered in Activity Base and the curves were fitted to the mean data using Excel and XL Fit, and shown as Ki.

GABAA α5/β3/γ2 [2] = target: T1, GABAA α5/β3/γ2; experiment: Functional assay (PatchXpress automated patch-clamp), α5 subtype; format: cell-based; details: % change of GABA EC20 response; compound 1 μM; HEK293 cells
Source text: as §1

inhibition at 1 µM (GABAA α1/β3/γ2): 9.8%
Ki (GABAA α5/β3/γ2 [1]): 0.9 nM
inhibition at 1 µM (GABAA α5/β3/γ2 [2]): 42.5%
Compound: Cc1cc(Nc2cc3c(cc2Cl)N(C)C(=O)CO3)nc2c1ncn2CC1CC1 [Example 160, 6-Chloro-7-((3-(cyclopropylmethyl)-7-methyl-3H-imidazo[4,5-b]pyridin-5-yl)amino)-4-methyl-2H-benzo[b][1,4]oxazin-3(4H)-one]
d2 index score (performance in NOR) (Lister Hooded rat): significantly improved performance
